# From patent US9000015B2, “Compounds for the treatment of addiction” (Gilead Sciences, Inc., priority 2011, dated 2015)
# How the values were obtained:
# HMAO-A = HMAO-A (Homo sapiens (Human), UniProt P21397); test: MAO-A assay (luminogenic MAO substrate); type: biochemical; details: microsome MAO-A, 160 uM substrate
# Description: (§1) MAO assays included luminogenic MAO substrate, reaction buffers, Luciferin Detection and the reconstitution buffer with eserase. Standard MAO reaction mixtures included microsome contained MAO-A (2 ug) or MAO-B (10 ug), 160 uM substrate for MAO-A or 16 uM substrate for MAO-B, MAO-A buffer (100 mM Hepes buffer, pH 7.5, 5% glycerol) or MAO-B buffer (100 mM Hepes, pH 7.5, 5% glycerol, 10% dimethyl sulfoxide) in a final volume of 30 ul. After 20 minutes of pre-incubation of the enzyme with compounds, the reaction was initiated by adding enzyme substrate and the reaction was allowed to proceed for 60 minutes. Reconstituted Luciferin Detection Reagent (30 ul) was then added is added to simultaneously stop the MAO reaction and convert the methyl ester derivative to luciferin and produce light. The amount of light produced is directly proportional to the activity of MAO. The mixtures were further incubated for 20 minutes and activity of the enzyme was determined using Perkin-Elmer Envision Reader.
# (§2) Note: […] refers to the concentration of a compound that inhibits a reaction by 50%. In the case of competitive inhibition, IC50=2Ki when the substrate is present at the Km concentration, as per the relationship: Ki=IC50/[1+(substrate concentration/Km)].
# [1] = test system: male Sprague Dawley (SD) rats; test: Rat cocaine cue reinstatement; type: in vivo; details: for inhibition of cocaine cue reinstatement compared to vehicle: 1 hr before session
# Description: Training of male Sprague Dawley (SD) rats had 3 separate stages. First, during self administration, animals were trained to lever press for cocaine with presentation of concomitant cues associated with drug delivery. Rats that reached criteria for addiction were included in the study. Afterward, during cue extinction, cocaine-cue dependent behavior was extinguished. Lastly, during cocaine cue reinstatement, the effect of compounds was tested on lever presses upon cue presentation (FIG. 2).
# Rats were trained to self administer i.v. cocaine (0.35 mg/kg/injection) daily (Monday to Friday) in standard operant chambers with retractable levers (Coulbourn Instruments, PA). During the daily 2 hr session, rats received a 0.05 ml infusion of 0.35 mg/kg cocaine every time the active lever was pressed. A cue light and tone turned on for 2 sec together with activation of a pump that delivered the cocaine solution. Rats were required to maintain an infusion rate of ≧20+ per day for at least 10 days before being moved to extinction training.
# During extinction sessions lever presses no longer produced cocaine infusion and cue light/tone presentation was absent. Rats received a maximum of 15 extinction sessions.
# On the next day after reaching extinction criteria, rats were treated orally with vehicle (Formulation 2B: 25% PEG400/5% Vit E TPGS/1% SLS/69% water with 0.5% Methocel) or drug (compound of Example 2 or compound of Example 5) before the cue reinstatement session. Cue reinstatement began with a tone and cue light. This 2 hr session was identical to the self-administration session (cue light and tone present upon active lever press) except that no cocaine was delivered. The number of active lever presses was compared to extinction lever responding. This is considered a measure of reinstatement. The next day, rats were returned to extinction sessions for at least 2 or 3 more sessions. Rats then received a second and last reinstatement session with an opposite treatment to the one received on the first reinstatement session (vehicle or drug treatment). […] The light/tone presentation triggers this response and it is interpreted as a measure of reinstatement even though cocaine is not available.
# recombinant human ALDH2 = recombinant human ALDH2 (Homo sapiens (Human), UniProt P05091); test: ALDH2 assay (NADH formation); type: biochemical; details: 60 min pre-incubation, 150 uM formaldehyde, 2.5 mM NAD+; read-out: IC50 HALDH2
# recombinant human ALDH2, sequence (P05091 18-517): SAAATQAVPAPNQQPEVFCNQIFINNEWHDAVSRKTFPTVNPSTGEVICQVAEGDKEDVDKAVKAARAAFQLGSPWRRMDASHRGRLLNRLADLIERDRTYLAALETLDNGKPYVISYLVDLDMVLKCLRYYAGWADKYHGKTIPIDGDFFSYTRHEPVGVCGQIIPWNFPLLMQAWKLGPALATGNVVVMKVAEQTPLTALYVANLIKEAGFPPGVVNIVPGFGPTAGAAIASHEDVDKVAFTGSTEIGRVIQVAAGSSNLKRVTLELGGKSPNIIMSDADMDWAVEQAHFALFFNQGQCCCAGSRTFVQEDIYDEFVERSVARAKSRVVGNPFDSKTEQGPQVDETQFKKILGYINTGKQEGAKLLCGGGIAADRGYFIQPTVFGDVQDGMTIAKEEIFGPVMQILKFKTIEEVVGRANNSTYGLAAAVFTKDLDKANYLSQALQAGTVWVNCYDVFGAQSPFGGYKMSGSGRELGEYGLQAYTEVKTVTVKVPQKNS
# Description: Standard ALDH2 reaction mixtures contained 150 uM formaldehyde, 2.5 mM NAD^+, 10 mM MgCl2 and 10 nM recombinant human ALDH2 in 50 mM Hepes buffer, pH 7.4, 0.01% Tween 20 in a final volume of 50 ul using 384-well plates. After 60 min of pre-incubation of compound with ALDH2 and formaldehyde, the reaction was started by adding NAD+ and the reaction mixture was allowed to proceed for 90 minutes. Activity of the enzyme was determined by monitoring NADH formation using Perkin-Elmer Envision Reader with excitation and emission wavelengths set at 340 and 460 nm, respectively.
# as §2
# Male SD rats [2] = test: Rat nicotine self administration, acute treatment; type: in vivo
# Description: (§3) Male SD rats were trained to self administer i.v. nicotine (0.03 mg/kg/inj) daily (Monday to Friday) in standard operant chambers with retractable levers (MED Associates, Inc) as previously published (Levin et al., 2003; Levin et al., 2007). During the daily 45 min session, rats received 0.05 ml infusion of 0.03 mg/kg/infusion of nicotine every time the active lever was pressed. A cue light and tone turned on for 0.5 sec together with the activation of a pump that delivered the nicotine solution. Daily sessions were run for at least 10 days before the initiation of drug testing. Solutions of compounds of Example 2 and Example 5 were prepared fresh daily in Formulation 2B: 25% PEG400/5% Vit E TPGS/1% SLS/69% water with 0.5% Methocel) for oral dosing. Compound of Example 2 doses were administered in a counterbalanced design for testing 1 hr before each nicotine session. Every rat received all drug doses and vehicle in a randomly assigned order. The oral drug administrations were made twice per week.
# Compound of Example 5 was tested in a study using 4 independent groups. Each group received either oral vehicle or 1 of the 3 doses of compound of Example 5 (5, 10 or 30 mg-eq/kg). […] The 5 mg/kg dose was ineffective.
# HMAO-B = HMAO-B (Homo sapiens (Human), UniProt P27338); test: MAO-B assay (luminogenic MAO substrate); type: biochemical; details: microsome MAO-B, 16 uM substrate
# HMAO-B, sequence (P27338 whole entry): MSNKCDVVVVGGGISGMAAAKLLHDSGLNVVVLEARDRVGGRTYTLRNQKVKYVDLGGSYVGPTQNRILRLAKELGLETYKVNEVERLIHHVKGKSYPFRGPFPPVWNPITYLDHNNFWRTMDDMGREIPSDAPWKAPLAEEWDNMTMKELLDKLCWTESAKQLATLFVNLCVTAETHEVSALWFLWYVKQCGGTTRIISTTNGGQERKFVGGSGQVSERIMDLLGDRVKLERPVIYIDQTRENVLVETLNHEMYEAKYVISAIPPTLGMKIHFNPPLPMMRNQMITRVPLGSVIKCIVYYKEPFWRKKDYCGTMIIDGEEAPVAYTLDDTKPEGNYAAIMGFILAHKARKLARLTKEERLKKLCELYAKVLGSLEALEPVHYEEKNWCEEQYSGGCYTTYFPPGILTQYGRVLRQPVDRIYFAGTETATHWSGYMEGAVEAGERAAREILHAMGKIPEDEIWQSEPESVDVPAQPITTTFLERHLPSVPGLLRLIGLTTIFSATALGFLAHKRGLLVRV
# Description: as §1, §2
# Male SD rats [3] = test: Rat nicotine self administration, 7-day chronic treatment; type: in vivo
# Description: as §3
# Upon completion of the acute compound of Example 5 treatment study, the same animals were used to test the effect of 7-day chronic oral administration of compound of Example 5 in the nicotine self administration model. Rats were treated orally with compound of Example 5 (5, 10 or 30 mg-eq/kg) or vehicle 1 hr before nicotine self administration session for 7 consecutive days. […] Similar to the acute treatment, the 5 mg-eq/kg dose was ineffective (FIG. 7). […] Animals in nicotine self administration studies had to reach pre defined criteria (e.g. rat strain, minimum number of nicotine infusions, consistent baseline nicotine self administration throughout the study, patent iv catheters, etc.) to be included in analysis.
# [4] = test system: Alcohol-preferring (iP) male rats; test: Rat alcohol self administration; type: in vivo; details: 1 hr before session, vs vehicle
# Source text: Alcohol-preferring (iP) male rats were trained to daily (Monday to Friday) self-administer alcohol (10% v/v) under operant conditions. A fixed-ratio of 3 (FR3), where rats had to press a lever 3 times to get one drop of alcohol during 20-min sessions was used (Cowen et al, 2005a; Cowen et al., 2005b; Lawrence et al., 2006). Availability of alcohol was conditioned by the presence of an olfactory cue (2 drops of vanilla essence, placed on the bedding of the operant chamber directly under the active lever), plus a 1-sec light stimulus when FR3 was obtained. For each session, total alcohol and water responses were recorded. Following acquisition of lever pressing behavior and stable alcohol self-administration, rats were administered oral vehicle or compound of Example 5 (5, 10 and 30 mg-eq/kg) 1 hr before each session in a counterbalanced order. Every rat received all drug doses and vehicle once per week in a randomly assigned order.
# HMAO-A, sequence (P21397 whole entry): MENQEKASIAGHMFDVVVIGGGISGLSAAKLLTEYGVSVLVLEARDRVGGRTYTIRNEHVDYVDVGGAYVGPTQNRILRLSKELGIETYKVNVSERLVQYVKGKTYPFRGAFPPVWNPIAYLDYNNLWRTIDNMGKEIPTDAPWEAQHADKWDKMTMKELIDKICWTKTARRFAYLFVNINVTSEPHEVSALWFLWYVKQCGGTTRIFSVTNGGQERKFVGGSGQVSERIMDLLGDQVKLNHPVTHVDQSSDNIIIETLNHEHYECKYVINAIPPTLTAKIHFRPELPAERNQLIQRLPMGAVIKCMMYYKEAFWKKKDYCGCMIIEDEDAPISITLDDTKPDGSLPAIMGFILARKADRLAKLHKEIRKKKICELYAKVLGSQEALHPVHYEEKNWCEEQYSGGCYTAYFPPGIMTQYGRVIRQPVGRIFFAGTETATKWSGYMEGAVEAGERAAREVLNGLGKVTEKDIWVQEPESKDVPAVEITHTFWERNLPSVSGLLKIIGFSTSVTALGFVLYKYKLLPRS
smiles,measurement,setting,value
"O=C(NCc1ccc(-c2cc[nH]c(=O)c2)cc1)c1c(Cl)cccc1Cl [Compound 2, 2,6-dichloro-N-[4-(2-oxo-1,2-dihydro-pyridin-4-yl)-benzyl]-benzamide]",IC50,HMAO-A,> 130 µM
same,reduction of cocaine cue-induced reinstatement (lever presses) compared to vehicle,[1]; 5 mg/kg oral,69%
same,reduction of cocaine cue-induced reinstatement (lever presses) compared to vehicle,[1]; 10 mg/kg oral,72%
same,reduction of cocaine cue-induced reinstatement (lever presses) compared to vehicle,[1]; 30 mg/kg oral,86%
same,IC50,recombinant human ALDH2,0.102 µM
same,effect on number of nicotine infusions compared to vehicle,"Male SD rats [2]; 1 mg/kg oral, 1 hr before session",without effect
same,effect on number of nicotine infusions compared to vehicle,"Male SD rats [2]; 5 mg/kg oral, 1 hr before session",without effect
same,inhibition of number of nicotine infusions compared to vehicle,"Male SD rats [2]; 10 mg/kg oral, 1 hr before session",26%
same,inhibition of number of nicotine infusions compared to vehicle,"Male SD rats [2]; 30 mg/kg oral, 1 hr before session",28%
same,inhibition of number of nicotine infusions compared to vehicle,"Male SD rats [2]; 60 mg/kg oral, 1 hr before session",31%
same,IC50,HMAO-B,> 130 µM
"O=C(NCc1ccc(-c2ccn(COP(=O)(O)O)c(=O)c2)cc1)c1c(Cl)cccc1Cl [Compound 14, phosphoric acid mono-(4-{4-[(2,6-dichloro-benzoylamino)-methyl]-phenyl}-2-oxo-2H-pyridin-1-ylmethyl) ester]",effect on number of nicotine infusions compared to vehicle,"Male SD rats [3]; 5 mg-eq/kg oral, 7 consecutive days",ineffective
same,inhibition of number of nicotine infusions compared to vehicle,"Male SD rats [3]; 10 mg-eq/kg oral, 7 consecutive days",48%
same,inhibition of number of nicotine infusions compared to vehicle,"Male SD rats [3]; 30 mg-eq/kg oral, 7 consecutive days",62%
same,tolerance to the therapeutic effect,"Male SD rats [3]; 7-day chronic oral administration, data not shown",no development of tolerance
same,IC50,HMAO-A,> 130 µM
same,inhibition of cocaine cue reinstatement compared to vehicle,"[1]; 2.5 mg-eq/kg oral, p>0.05, N.S.",30%
same,effect on cocaine cue reinstatement versus vehicle,"[1]; 2.5 mg-eq/kg oral, lowest dose tested",not significantly different from vehicle
same,inhibition of cocaine cue reinstatement compared to vehicle,[1]; 5 mg-eq/kg oral,59%
same,inhibition of cocaine cue reinstatement compared to vehicle,[1]; 10 mg-eq/kg oral,55%
same,inhibition of cocaine cue reinstatement compared to vehicle,[1]; 30 mg-eq/kg oral,50%
same,IC50,recombinant human ALDH2,> 10 µM
same,number of lever presses for alcohol,[4]; 10 mg-eq/kg oral,significantly decreased
same,number of lever presses for alcohol,[4]; 30 mg-eq/kg oral,significantly decreased
same,effect on number of nicotine infusions compared to vehicle,"Male SD rats [2]; 5 mg-eq/kg oral, independent groups",ineffective
same,inhibition of number of nicotine infusions compared to vehicle,"Male SD rats [2]; 10 mg-eq/kg oral, independent groups",51%
same,inhibition of number of nicotine infusions compared to vehicle,"Male SD rats [2]; 30 mg-eq/kg oral, independent groups",68%
same,IC50,HMAO-B,> 130 µM
